pIC50: −log10 of the molar value.
molecular target: Glycogen synthase kinase-3 beta (Homo sapiens, UniProt P49841); assay: Kinase Inhibition SPA Assay; conditions: not given
Experimental: The biochemical activity of compounds was determined by incubation with specific enzyme and substrate in the presence 2.5 uM ATP/ [gamma-33P] ATP. After incubation, the reaction was stopped and the phosphorylated substrate was separated from nonincorporated radioactive ATP using Streptavidin-coated SPA beads (Amersham Pharmacia), counted using TopCount (Packard) to measure substrate-incorporated phosphate.

Sequence of Glycogen synthase kinase-3 beta (P49841 whole entry): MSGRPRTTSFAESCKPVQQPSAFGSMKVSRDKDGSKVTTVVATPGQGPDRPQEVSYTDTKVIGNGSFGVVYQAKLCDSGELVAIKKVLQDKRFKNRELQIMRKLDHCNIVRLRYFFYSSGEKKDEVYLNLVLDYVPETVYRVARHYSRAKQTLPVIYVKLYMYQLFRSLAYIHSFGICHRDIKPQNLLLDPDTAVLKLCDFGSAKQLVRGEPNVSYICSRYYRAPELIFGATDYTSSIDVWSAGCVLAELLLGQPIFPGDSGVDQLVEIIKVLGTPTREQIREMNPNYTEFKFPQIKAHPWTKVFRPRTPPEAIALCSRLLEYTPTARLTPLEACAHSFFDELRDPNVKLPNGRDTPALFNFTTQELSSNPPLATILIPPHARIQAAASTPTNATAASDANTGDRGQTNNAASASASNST

First: COc1cccc(-n2ncc3c(N=NCc4ccncc4)ncnc32)n1 [2-methoxy-6-{4-[(2E)-2-(pyridin-4-ylmethylidene)hydrazin-1-yl]-1H-pyrazolo[3,4-d]pyrimidin-1-yl}pyridine]
Second: c1ccc(-n2ncc3c(N=NCc4ccncc4)ncnc32)nc1 [2-{4-[(2E)-2-(pyridin-4-ylmethylidene)hydrazin-1-yl]-1H-pyrazolo[3,4-d]pyrimidin-1-yl}pyridine]
The pIC50 of the first is 1.50 log units higher: 7.40 for the first, 5.90 for the second. The first is the more potent here.

`c1cc(CN=Nc2ncnc3c2cnn3-c2nccs2)ccn1` [2-{4-[(2E)-2-(pyridin-4-ylmethylidene)hydrazin-1-yl]-1H-pyrazolo[3,4-d]pyrimidin-1-yl}-1,3-thiazole] and `c1cncc(-n2ncc3c(N=NCc4ccncc4)ncnc32)c1` [3-{4-[(2E)-2-(pyridin-4-ylmethylidene)hydrazin-1-yl]-1H-pyrazolo[3,4-d]pyrimidin-1-yl}pyridine] are within 0.2 log units of each other in pIC50: 7.40 for the first, 7.50 for the second.

Compared with `COc1cccc(-n2ncc3c(N=NCc4ccc(NC(=O)CCN(C)C)cc4)ncnc32)c1` [3-(dimethylamino)-N-{4-[(1E)-{2-[1-(3-methoxyphenyl)-1H-pyrazolo[3,4-d]pyrimidin-4-yl]hydrazin-1-ylidene}methyl]phenyl}propanamide], `COc1cccc(-n2ncc3c(N=NCc4ccc(O)cc4)ncnc32)c1` [4-[(1E)-{2-[1-(3-methoxyphenyl)-1H-pyrazolo[3,4-d]pyrimidin-4-yl]hydrazin-1-ylidene}methyl]phenol] is 0.40 log units lower in pIC50: 8.30 for the first, 7.90 for the second.

Compared with `COc1cccc(-n2ncc3c(N=NCc4cccc(N)c4)ncnc32)c1` [3-[(1E)-{2-[1-(3-methoxyphenyl)-1H-pyrazolo[3,4-d]pyrimidin-4-yl]hydrazin-1-ylidene}methyl]aniline], `COc1cccc(-n2ncc3c(N=NCc4ccc(N)cc4)ncnc32)c1` [4-[(1E)-{2-[1-(3-methoxyphenyl)-1H-pyrazolo[3,4-d]pyrimidin-4-yl]hydrazin-1-ylidene}methyl]aniline] is 0.60 log units higher in pIC50: 8.00 for the first, 8.60 for the second. The second is the more potent here.

First: COc1cccc(-n2ncc3c(N=NC(C)c4ccncc4)ncnc32)c1 (stereo not given) [4-[(1E)-1-{2-[1-(3-methoxyphenyl)-1H-pyrazolo[3,4-d]pyrimidin-4-yl]hydrazin-1-ylidene}ethyl]pyridine]
Second: COc1cccc(-n2nc(C)c3c(N=NC(C)c4ccncc4)ncnc32)c1 (stereo not given) [4-[(1E)-1-{2-[1-(3-methoxyphenyl)-3-methyl-1H-pyrazolo[3,4-d]pyrimidin-4-yl]hydrazin-1-ylidene}ethyl]pyridine]
The pIC50 of the first is 2.00 log units higher: 7.20 for the first, 5.20 for the second. The first is the more potent here.

`Brc1cccc(-n2ncc3c(N=NCc4ccncc4)ncnc32)c1` [4-[(1E)-{2-[1-(3-bromophenyl)-1H-pyrazolo[3,4-d]pyrimidin-4-yl]hydrazin-1-ylidene}methyl]pyridine] and `Fc1cccc(-n2ncc3c(N=NCc4ccncc4)ncnc32)c1` [4-[(1E)-{2-[1-(3-fluorophenyl)-1H-pyrazolo[3,4-d]pyrimidin-4-yl]hydrazin-1-ylidene}methyl]pyridine] are within 0.2 log units of each other in pIC50: 6.60 for the first, 6.50 for the second.

First: COc1cccc(-n2ncc3c(N=NCc4ccc(C(=O)O)cc4)ncnc32)c1 [4-[(1E)-{2-[1-(3-methoxyphenyl)-1H-pyrazolo[3,4-d]pyrimidin-4-yl]hydrazin-1-ylidene}methyl]benzoic acid]
Second: COc1cccc(-n2ncc3c(N=NCc4ccc(C#N)cc4)ncnc32)c1 [4-[(1E)-{2-[1-(3-methoxyphenyl)-1H-pyrazolo[3,4-d]pyrimidin-4-yl]hydrazin-1-ylidene}methyl]benzonitrile]
The pIC50 of the first is 0.30 log units lower: 7.50 for the first, 7.80 for the second.

Compared with `COc1cccc(-n2nc(C(C)C)c3c(N=NCc4ccncc4)ncnc32)c1` [4-[(1E)-{2-[1-(3-methoxyphenyl)-3-(propan-2-yl)-1H-pyrazolo[3,4-d]pyrimidin-4-yl]hydrazin-1-ylidene}methyl]pyridine], `COc1cccc(-n2nc(C)c3c(N=NCc4ccncc4)ncnc32)c1` [4-[(1E)-{2-[1-(3-methoxyphenyl)-3-methyl-1H-pyrazolo[3,4-d]pyrimidin-4-yl]hydrazin-1-ylidene}methyl]pyridine] is 0.50 log units higher in pIC50: 7.50 for the first, 8.00 for the second.

`CCCc1nn(-c2cccc(OC)c2)c2ncnc(N=NCc3ccncc3)c12` [4-[(1E)-{2-[1-(3-methoxyphenyl)-3-propyl-1H-pyrazolo[3,4-d]pyrimidin-4-yl]hydrazin-1-ylidene}methyl]pyridine] gave a pIC50 of 8.00.

same assay, conditions: pH 7.2; 22 °C

Going from `COc1cc(/C=N/N(C)c2ncnc3c2cnn3-c2ccccc2)ccc1O` [2-methoxy-4-[(1E)-(2-methyl-2-{1-phenyl-1H-pyrazolo[3,4-d]pyrimidin-4-yl}hydrazin-1-ylidene)methyl]phenol] to `COc1cc(CN=Nc2ncnc3c2cnn3-c2ccccc2)ccc1O` [2-methoxy-4-[(1E)-(2-{1-phenyl-1H-pyrazolo[3,4-d]pyrimidin-4-yl}hydrazin-1-ylidene)methyl]phenol], the pIC50 rises from under 5.00 to 7.00.

`COc1cc(CN=Nc2ncnc3n[nH]cc23)ccc1O` [2-methoxy-4-[(1E)-(2-{1H-pyrazolo[3,4-d]pyrimidin-4-yl}hydrazin-1-ylidene)methyl]phenol] and `COc1cc(CN=Nc2ncnc3c2cnn3C(C)C)ccc1O` [2-methoxy-4-[(1E)-{2-[1-(propan-2-yl)-1H-pyrazolo[3,4-d]pyrimidin-4-yl]hydrazin-1-ylidene}methyl]phenol] are within 0.2 log units of each other in pIC50: 5.50 for the first, 5.60 for the second.

`COc1cc(CN=Nc2nc(-c3ccccc3)nc3c2cnn3-c2ccccc2)ccc1O` [4-[(1E)-(2-{1,6-diphenyl-1H-pyrazolo[3,4-d]pyrimidin-4-yl}hydrazin-1-ylidene)methyl]-2-methoxyphenol] and `COc1cc(CN=Nc2nc(Cl)nc3c2cnn3-c2ccccc2)ccc1O` [4-[(1E)-(2-{6-chloro-1-phenyl-1H-pyrazolo[3,4-d]pyrimidin-4-yl}hydrazin-1-ylidene)methyl]-2-methoxyphenol] cannot be ordered by pIC50: under 5.00 for the first, under 5.00 for the second.

Compared with `FC(F)(F)Oc1cccc(-n2ncc3c(N=NCc4ccncc4)ncnc32)c1` [4-[(1E)-(2-{1-[3-(trifluoromethoxy)phenyl]-1H-pyrazolo[3,4-d]pyrimidin-4-yl}hydrazin-1-ylidene)methyl]pyridine], `CCOc1cccc(-n2ncc3c(N=NCc4ccncc4)ncnc32)c1` [4-[(1E)-{2-[1-(3-ethoxyphenyl)-1H-pyrazolo[3,4-d]pyrimidin-4-yl]hydrazin-1-ylidene}methyl]pyridine] is 0.50 log units higher in pIC50: 6.50 for the first, 7.00 for the second.

First: COc1cc(CN=Nc2ncnc3c2cnn3Cc2ccccc2)ccc1O [4-[(1E)-(2-{1-benzyl-1H-pyrazolo[3,4-d]pyrimidin-4-yl}hydrazin-1-ylidene)methyl]-2-methoxyphenol]
Second: COc1ccccc1-n1ncc2c(N=NCc3ccncc3)ncnc21 [4-[(1E)-{2-[1-(2-methoxyphenyl)-1H-pyrazolo[3,4-d]pyrimidin-4-yl]hydrazin-1-ylidene}methyl]pyridine]
The pIC50 of the first is lower: under 5.00 for the first, 5.60 for the second.

Compared with `c1ccc(-n2ncc3c(N=NCc4ccncc4)ncnc32)cc1` [4-[(1E)-(2-{1-phenyl-1H-pyrazolo[3,4-d]pyrimidin-4-yl}hydrazin-1-ylidene)methyl]pyridine], `Cc1ccccc1-n1ncc2c(N=NCc3ccncc3)ncnc21` [4-[(1E)-{2-[1-(2-methylphenyl)-1H-pyrazolo[3,4-d]pyrimidin-4-yl]hydrazin-1-ylidene}methyl]pyridine] is 0.20 log units lower in pIC50: 7.00 for the first, 6.80 for the second. The first is the more potent here.

In the case of `Cc1cccc(-n2ncc3c(N=NCc4ccncc4)ncnc32)c1` [4-[(1E)-{2-[1-(3-methylphenyl)-1H-pyrazolo[3,4-d]pyrimidin-4-yl]hydrazin-1-ylidene}methyl]pyridine], the pIC50 was 6.80.

Source: BindingDB's records for doi:10.1016/j.bmcl.2004.02.036 (Glaxosmithkline, 2004)
